Experimental data from publication PMC11941218, “Juglone-Bearing Thiopyrano[2,3-d]thiazoles Induce Apoptosis in Colorectal Adenocarcinoma Cells” (Cells, 2025).
Where two headings read alike, the source gives them in different places.

Key:
Type in all cases: cell-based, human
[1] = test system: HT-29 colorectal adenocarcinoma cells; assay: Apoptosis assay, FITC-Annexin V/propidium iodide flow cytometry; settings: HT-29, 24 h; Les-6547 5 μM, Les-6557 10 μM
Protocol: The pro-apoptotic effects of the tested compounds were assessed using the FITC Annexin V Apoptosis Detection Kit II in conjunction with a BD FACSCanto II flow cytometer (BD Biosciences, San Jose, CA, USA). The experimental procedure adhered to the manufacturer’s instructions and previously established protocols.
Initially, HT-29 cells were seeded in 6-well plates at a density of 300,000 cells per well in 2 mL of culture medium and incubated overnight to allow adherence. Subsequently, the cells were treated with Les-6547 (5 µM) and Les-6557 (10 µM) for 24 h. After exposure to the compounds, the cells were rinsed twice with cold PBS and suspended in the binding buffer provided in the kit. FITC Annexin V and propidium iodide (PI) were added to the 100 µL cell suspension, followed by 15-min incubation at room temperature, shielded from light.
After the incubation, 300 µL of binding buffer was added to each sample, and analysis was performed using the flow cytometer, with 10,000 events recorded per sample. Data were processed using FACSDiva software (version 6.1.3, BD Biosciences, San Jose, CA, USA). Calibration of the instrument was ensured using a BD Cytometer Setup and Tracking Beads (BD Biosciences, San Diego, CA, USA).

[2] = test system: HT-29 colorectal adenocarcinoma cells; assay: Mitochondrial membrane potential assay (JC-1, flow cytometry); settings: HT-29, JC-1, 24 h; Les-6547 5 μM, Les-6557 10 μM
Protocol: The disruption of mitochondrial membrane potential (MMP) was assessed using the JC-1 MitoScreen kit and a BD FACSCanto II flow cytometer, following the instructions provided and previously described protocols.
HT-29 cells were exposed to Les-6547 (5 µM) and Les-6557 (10 µM) for 24 h. After the treatment, the cells were washed and resuspended in 0.5 mL of buffer containing 10 μg/mL JC-1, followed by incubation for 15 min at room temperature, shielded from light.
Then, the cells were washed twice with buffer, resuspended in 300 μL of PBS, and analyzed for mitochondrial membrane potential disruption.

[3] = test system: HT-29 colorectal adenocarcinoma cells; assay: Cell cycle analysis (PI, flow cytometry); settings: HT-29, 24 h; Les-6547 5 μM, Les-6557 10 μM
Protocol: Cell cycle analysis of HT-29 cells treated with Les-6547 (5 µM) and Les-6557 (10 µM) for 24 h was conducted utilizing a FACSCanto II flow cytometer. Following the incubation period, the cells were detached using trypsin, collected, and fixed in cold ethanol (70%) before being stored at −20 °C for up to three days. Cells were then processed for flow cytometry analysis as previously described. Fixed cells were washed with cold PBS and centrifuged at 2000 rpm for 10 min, and the supernatant was discarded. The cell pellet was resuspended in PBS with 50 μg/mL DNase-free RNase A Solution and stained with 100 μg/mL PI for 30 min at 37 °C in the dark. After washing, the cells were resuspended in PBS. Cell cycle distribution was analyzed using a BD FACSCanto II flow cytometer (10,000 events) and FACSDiva 6.1.3 software (both BD Biosciences Systems, San Jose, CA, USA), followed by analysis with FCS Express 7 software (De Novo Software, Pasadena, CA, USA). The system was calibrated using a BD Cytometer Setup and Tracking Beads (BD Biosciences, San Diego, CA, USA).

[4] = test system: DLD-1 colorectal adenocarcinoma cells; assay: MTT assay; settings: for IC50: Homo sapiens
Protocol: DLD-1, HaCaT, and Balb/c 3T3 cells were maintained in DMEM, while HT-29 cells were grown in McCoy’s 5A medium with 10% FBS and 1% penicillin/streptomycin. All cell lines were incubated at 37 °C in a humidified atmosphere with 5% CO2. After detaching the cells with trypsin, they were quantified using a Scepter 3.0 automated cell counter (Millipore, Burlington, MA, USA).
The metabolic activity of cells exposed to the tested derivatives, doxorubicin, and DMSO, was assessed using an MTT assay according to the manufacturer’s protocol (Sigma-Aldrich, St. Louis, MO, USA). Adherent cells were seeded into 96-well plates (5000–10,000 cells in 100 µL of growth medium per well) and allowed to adhere overnight before treatment. For lymphocytes, activation with phytohemagglutinin-L (1 µg/mL) was performed for 24 h, after which they were seeded in 96-well plates at a density of 100,000 cells/well in RPMI-1640 medium supplemented with 20% FBS. The test substances, including Les-6547, Les-6557, and doxorubicin, were added to 100 µL of culture medium to achieve final concentrations of 0 µM, 0.1 µM, 1 µM, 2.5 µM, 10 µM, and 100 µM for all compounds, and the cells were further incubated for 24, 48, or 72 h. DMSO-treated cells served as the control. Then, 20 µL of MTT solution (5 mg/mL) was added and incubated for 2–4 h to allow formazan crystal formation. The formazan crystals were then solubilized by adding DMSO. The absorbance of formazan was measured at 570 nm using a ThermoScientific Evolution 201 UV-VIS spectrophotometer (ThermoFisher Scientific, Waltham, MA, USA). The control condition with 0.5% DMSO was considered 100% viability. The IC50 values for the compounds were determined using GraphPad Prism 8 and 9 software (GraphPad Software, Boston, MA, USA).

[5] = test system: caspase 10; assay: Caspase 10 activity assay (FAM-FLICA, flow cytometry) in HT-29 cells; settings: HT-29, 24 h; Les-6547 5 μM, Les-6557 10 μM
Protocol: Caspase activity for initiator caspases (8, 9, and 10) and executioner caspases (3/7) was evaluated using a FAM-FLICA® Caspase Assay kit (ImmunoChemistry Technologies, Bloomington, MN, USA) according to the manufacturer’s instructions, as described in previous studies. HT-29 cells were exposed to Les-6547 (5 µM) and Les-6557 (10 µM) for 24 h. Following this, the cells were harvested, washed twice with cold PBS, and resuspended in Apoptosis Wash Buffer (ImmunoChemistry Technologies, Bloomington, MN, USA) at a final concentration of 5 × 10^5 cells/mL.
Subsequently, 290 µL of the cell suspension was transferred into individual tubes, to which 10 µL of freshly prepared FLICA solution (1:5 dilution in PBS) was added. The mixture was gently pipetted and incubated for 1 h at 37 °C in the dark. After the incubation, the cells were washed twice with 2 mL of Apoptosis Wash Buffer, centrifuged, and resuspended in 300 µL of the same buffer. The prepared samples were immediately analyzed using a BD FACSCanto II flow cytometer (10,000 events). Data were processed using FACSDiva 6.1.3 software (BD Biosciences Systems, San Jose, CA, USA). Flow cytometer calibration was conducted using a BD Cytometer Setup and Tracking Beads (BD Biosciences, San Diego, CA, USA).

[6] = DLD-1, MTT, 24, 48 and 72 h, read-out: IC50 (range over incubation times)
[7] = DLD-1, MTT, 24 h, M ± SD, n = 3, read-out: IC50
[8] = DLD-1, MTT, 48 h, M ± SD, n = 3, read-out: IC50
[9] = DLD-1, MTT, 72 h, M ± SD, n = 3, read-out: IC50

| SMILES | apoptotic cells (sum of early and late apoptotic cells) [1] [%] | Cells with decreased ΔΨm [2] [%] | Cells with normal ΔΨm [2] [%] | cells in G1 phase [3] [%] | cells in G2/M phase [3] [%] | cells in S phase [3] [%] | IC50 [4, 6] [µM] | IC50 [4, 7] [µM] | IC50 [4, 8] [µM] | IC50 [4, 9] [µM] | inhibition of viability, times more effective than Les-6547 ([4]; DLD-1, MTT, 48 h, versus Les-6547) [times] | Cells with active caspase 10 [5] [%] |
| --- | --- | --- | --- | --- | --- | --- | --- | --- | --- | --- | --- | --- |
| O=C1C2=C(C(=O)c3c(O)cccc31)C(c1cc(Cl)ccc1O)c1sc(=O)[nH]c1S2 (stereo not shown) [Les-6547] | 36.2 | 30.8 | 70.4 | 25.4 | 39.9 | 34.7 | 5.14 to 6.62 | 5.14 ± 0.81 | 5.17 ± 0.58 | 6.62 ± 0.07 |  |  |
| O=C1C2=C(C(=O)c3c(O)cccc31)C(c1ccc(Cl)cc1)c1sc(=O)[nH]c1S2 (stereo not shown) [Les-6557] | 31.9 | 32.9 | 68.5 | 19.2 | 28.8 | 51.3 | 1.94 to 16.9 | 16.9 ± 3.32 | 1.94 ± 0.05 | 5.19 ± 1.14 | 2.5 | 40.9 |
